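Cells were grown in 96-well plates and exposed to each compound for 48 hours at five concentrations; endpoints were interpolated linearly between bracketing concentrations, or set to the highest concentration if not reached. GI50 is the concentration that inhibits growth by half. TGI denotes the concentration required for complete inhibition of growth.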
What was measured:
Assay in all cases: NCI-60 cell line screen, 48 h
LOX IMVI melanoma = system: LOX IMVI melanoma
MDA-MB-231 breast = system: MDA-MB-231 breast
SR leukemia = system: SR leukemia
HCT-15 colon = system: HCT-15 colon
HOP-92 NSCLC = system: HOP-92 NSCLC
HCC-2998 colon = system: HCC-2998 colon
U251 CNS = system: U251 CNS
MDA-MB-435 = system: MDA-MB-435
SW-620 colon = system: SW-620 colon
UACC-62 melanoma = system: UACC-62 melanoma
DU-145 prostate = system: DU-145 prostate
KM12 colon = system: KM12 colon
SK-MEL-5 melanoma = system: SK-MEL-5 melanoma
SF-295 CNS = system: SF-295 CNS
OVCAR-4 ovarian = system: OVCAR-4 ovarian
A498 renal = system: A498 renal
SK-MEL-28 melanoma = system: SK-MEL-28 melanoma
NCI/ADR-RES ovarian = system: NCI/ADR-RES ovarian
NCI-H226 lung = system: NCI-H226 lung
UO-31 renal = system: UO-31 renal
SK-MEL-2 melanoma = system: SK-MEL-2 melanoma
T-47D breast = system: T-47D breast
ACHN renal = system: ACHN renal
EKVX NSCLC = system: EKVX NSCLC
SN12C renal = system: SN12C renal
TK-10 renal = system: TK-10 renal
SF-539 CNS = system: SF-539 CNS
K-562 leukemia = system: K-562 leukemia
CAKI-1 renal = system: CAKI-1 renal
NCI-H522 lung = system: NCI-H522 lung
MCF7 breast = system: MCF7 breast
BT-549 breast = system: BT-549 breast
OVCAR-5 ovarian = system: OVCAR-5 ovarian
UACC-257 melanoma = system: UACC-257 melanoma
NCI-H23 lung = system: NCI-H23 lung
NCI-H460 lung = system: NCI-H460 lung
SNB-19 CNS = system: SNB-19 CNS
RXF 393 renal = system: RXF 393 renal
PC-3 prostate = system: PC-3 prostate
MALME-3M melanoma = system: MALME-3M melanoma
CCRF-CEM leukemia = system: CCRF-CEM leukemia
SNB-75 CNS = system: SNB-75 CNS
RPMI-8226 leukemia = system: RPMI-8226 leukemia

In the case of `O=C(CCN1CCCC1)Nc1ccc2c(NCCCc3ccccc3)c3ccccc3nc2c1`, the GI50 (LOX IMVI melanoma) is reported as 739 nM, the TGI (LOX IMVI melanoma) is reported as 2040 nM and the GI50 (MDA-MB-231 breast) is reported as 1020 nM. The TGI (MDA-MB-231 breast) was 2300 nM, the GI50 (SR leukemia) was 467 nM and the TGI (SR leukemia) was 2550 nM. For the same compound, the GI50 (HCT-15 colon) was 2620 nM, the TGI (HCT-15 colon) was 10500 nM and the GI50 (HOP-92 NSCLC) was 875 nM. The TGI (HOP-92 NSCLC) was 2240 nM, the GI50 (HCC-2998 colon) was 1140 nM and the TGI (HCC-2998 colon) was 2430 nM. The GI50 (U251 CNS) was 1040 nM, the TGI (U251 CNS) was 2360 nM and the GI50 (MDA-MB-435) was 1460 nM. For the same compound, the TGI (MDA-MB-435) was 2820 nM, the GI50 (SW-620 colon) was 540 nM and the TGI (SW-620 colon) was 1930 nM. For the same compound, the GI50 (UACC-62 melanoma) was 1540 nM, the TGI (UACC-62 melanoma) was 2930 nM and the GI50 (DU-145 prostate) was 886 nM. The TGI (DU-145 prostate) was 2090 nM, the GI50 (KM12 colon) was 1170 nM and the TGI (KM12 colon) was 2540 nM. For the same compound, the GI50 (SK-MEL-5 melanoma) was 1610 nM, the TGI (SK-MEL-5 melanoma) was 2970 nM and the GI50 (SF-295 CNS) was 1310 nM. For the same compound, the TGI (SF-295 CNS) was 2590 nM, the GI50 (OVCAR-4 ovarian) was 812 nM and the TGI (OVCAR-4 ovarian) was 2260 nM. The GI50 (A498 renal) was 1310 nM, the TGI (A498 renal) was 3140 nM and the GI50 (SK-MEL-28 melanoma) was 1770 nM. The TGI (SK-MEL-28 melanoma) was 3250 nM, the GI50 (NCI/ADR-RES ovarian) was 15100 nM and the TGI (NCI/ADR-RES ovarian) was 71900 nM. The GI50 (NCI-H226 lung) was 1270 nM, the TGI (NCI-H226 lung) was 2830 nM and the GI50 (UO-31 renal) was 1600 nM. The TGI (UO-31 renal) was 3160 nM, the GI50 (SK-MEL-2 melanoma) was 1690 nM and the TGI (SK-MEL-2 melanoma) was 3240 nM. For the same compound, the GI50 (T-47D breast) was 1340 nM, the TGI (T-47D breast) was 3910 nM and the GI50 (ACHN renal) was 1420 nM. For the same compound, the TGI (ACHN renal) was 2800 nM, the GI50 (EKVX NSCLC) was 1210 nM and the TGI (EKVX NSCLC) was 2560 nM. It also gave a GI50 (SN12C renal) of 815 nM, a TGI (SN12C renal) of 2210 nM and a GI50 (TK-10 renal) of 1660 nM. It also gave a TGI (TK-10 renal) of 3410 nM, a GI50 (SF-539 CNS) of 1240 nM and a TGI (SF-539 CNS) of 2550 nM. The GI50 (K-562 leukemia) was 945 nM, the TGI (K-562 leukemia) was 3360 nM and the GI50 (CAKI-1 renal) was 14800 nM. The TGI (CAKI-1 renal) was 28000 nM, the GI50 (NCI-H522 lung) was 664 nM and the TGI (NCI-H522 lung) was 2150 nM. For the same compound, the GI50 (MCF7 breast) was 467 nM, the TGI (MCF7 breast) was 1800 nM and the GI50 (BT-549 breast) was 1610 nM. For the same compound, the TGI (BT-549 breast) was 3110 nM, the GI50 (OVCAR-5 ovarian) was 1120 nM and the TGI (OVCAR-5 ovarian) was 2400 nM. It also gave a GI50 (UACC-257 melanoma) of 1810 nM, a TGI (UACC-257 melanoma) of 3640 nM and a GI50 (NCI-H23 lung) of 1120 nM. The TGI (NCI-H23 lung) was 2410 nM, the GI50 (NCI-H460 lung) was 460 nM and the TGI (NCI-H460 lung) was 1600 nM. It also gave a GI50 (SNB-19 CNS) of 729 nM, a TGI (SNB-19 CNS) of 2000 nM and a GI50 (RXF 393 renal) of 918 nM. For the same compound, the TGI (RXF 393 renal) was 2200 nM, the GI50 (PC-3 prostate) was 566 nM and the TGI (PC-3 prostate) was 1940 nM. The GI50 (MALME-3M melanoma) was 1580 nM, the TGI (MALME-3M melanoma) was 3120 nM and the GI50 (CCRF-CEM leukemia) was 562 nM. The TGI (CCRF-CEM leukemia) was 3030 nM, the GI50 (SNB-75 CNS) was 1170 nM and the TGI (SNB-75 CNS) was 2410 nM. The GI50 (RPMI-8226 leukemia) was 611 nM and the TGI (RPMI-8226 leukemia) was 3630 nM.
